In ChEMBL document CHEMBL1201862, “PubChem BioAssay data set” (2004):
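The compound was tested at five concentrations on cells cultured in 96-well plates, with a 48-hour exposure period. GI50 marks 50% less growth.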 Calls of active or inactive are those of the source. No stated cut-off is given here; in the data, active = GI50 up to about 1.1 µM and inactive = higher.

Legend:
Assay in all cases: inhibition of tumour cell growth, NCI panel, 48 h
CAKI-1 = test system: CAKI-1
NCI/ADR-RES = test system: NCI/ADR-RES
A549 = test system: A549
MCF7 = test system: MCF7
LOX IMVI = test system: LOX IMVI
T47D = test system: T47D
HT-29 = test system: HT-29
SR = test system: SR
PC-3 = test system: PC-3
U-251 = test system: U-251
KM12 = test system: KM12
Malme-3M = test system: Malme-3M
IGROV-1 = test system: IGROV-1
SF-295 = test system: SF-295
ACHN = test system: ACHN
SF-539 = test system: SF-539
TK-10 = test system: TK-10

Measured: GI50

COc1ccc2c(Cl)cc(NC(=S)Nc3ccccc3)nc2c1
inactive: CAKI-1 35.6 µM | NCI/ADR-RES 22.3 µM | A549 29.5 µM | MCF7 25.8 µM | LOX IMVI 21.1 µM | T47D 14.5 µM | HT-29 22.4 µM | SR 26.2 µM | PC-3 28.6 µM | U-251 20 µM | KM12 18.7 µM | Malme-3M 15.2 µM | IGROV-1 20.8 µM | SF-295 31.6 µM | ACHN 38.5 µM | SF-539 32.6 µM | TK-10 57.7 µM

O=C(/C=C/c1ccc(O)c(O)c1)NC(COC(=O)/C=C/c1ccc(O)c(O)c1)C(=O)O (stereo not given)
inactive: CAKI-1 > 100 µM | NCI/ADR-RES > 100 µM | A549 > 100 µM | MCF7 > 100 µM | LOX IMVI > 100 µM | T47D > 100 µM | HT-29 > 100 µM | SR > 100 µM | PC-3 > 100 µM | U-251 > 100 µM | KM12 > 100 µM | Malme-3M > 100 µM | IGROV-1 > 100 µM | SF-295 > 100 µM | ACHN > 100 µM | SF-539 > 100 µM | TK-10 > 100 µM

O=C(O)Cc1cccnc1
inactive: CAKI-1 > 100 µM | NCI/ADR-RES > 100 µM | A549 > 100 µM | MCF7 > 100 µM | LOX IMVI > 100 µM | T47D > 100 µM | HT-29 > 100 µM | SR > 100 µM | PC-3 > 100 µM | U-251 > 100 µM | KM12 > 100 µM | Malme-3M > 100 µM | IGROV-1 > 100 µM | SF-295 > 100 µM | ACHN > 100 µM | SF-539 > 100 µM | TK-10 > 100 µM

COC(=O)CCC1=NCC(C)(C)O1
inactive: CAKI-1 > 10 µM | NCI/ADR-RES > 10 µM | A549 > 10 µM | MCF7 > 10 µM | LOX IMVI > 10 µM | T47D > 10 µM | HT-29 > 10 µM | SR > 10 µM | PC-3 > 10 µM | U-251 > 10 µM | KM12 > 10 µM | Malme-3M > 10 µM | IGROV-1 > 10 µM | SF-295 > 10 µM | ACHN > 10 µM | SF-539 > 10 µM | TK-10 > 10 µM

CC(C)OC(=O)[C@@H]1OC(C)(C)O[C@H]1C(=O)OC(C)C
inactive: CAKI-1 > 100 µM | NCI/ADR-RES > 100 µM | A549 > 100 µM | MCF7 > 100 µM | LOX IMVI > 100 µM | T47D > 100 µM | HT-29 > 100 µM | SR > 100 µM | PC-3 > 100 µM | U-251 > 100 µM | KM12 > 100 µM | Malme-3M > 100 µM | IGROV-1 > 100 µM | SF-295 > 100 µM | ACHN > 100 µM | SF-539 > 100 µM | TK-10 > 100 µM
